Consider 26 compounds from patent US20190077795A1, “ARGININE […] INHIBITORS AND USES THEREOF” (Epizyme, Inc., priority 2014, published 2019).

In one test the target is T1, human PRMT1 (Homo sapiens, UniProt Q99873).
T1 construct: GST-tagged PRMT1; made in house; host or cells: High Five insect cells (baculovirus, pFastBac1)
Description: PRMT1 Biochemical Assay. The settings on record: peptide substrate, 3H-SAM Flashplate assay; read-out: PRMT1 IC50. Summed up: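 GST-tagged PRMT1 from baculovirus-infected cells, preincubated with compounds 30 min at room temperature in 20 mM Bicine pH 7.6, 1 mM TCEP, 0.005% BSG, 0.002% Tween 20. Reaction started with ³H-SAM plus biotinylated peptide, stopped with 300 µM cold SAM.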

For the next test, the target named is T2, human PRMT6 (Homo sapiens, UniProt Q96LA8).
T2 construct: Flag-PRMT6-His; made in house; host or cells: HEK 293F cells (BacMam baculovirus, pFastBacMam)
Kind of test: PRMT6 Biochemical Assay.

Test [1] relates to mono-methyl arginine in RKO cells. Description: RKO Methylation Assay, In Cell Western (ICW). It is filed as cell-based. To be noted: 72 hours.
In a further test the target is human PRMT8 (Homo sapiens, UniProt Q9NR22). Kind of test: PRMT8 Biochemical Assay. To be noted: PRMT8 IC50 (uM), peptide substrate, 3H-SAM Flashplate assay.
Where [2] appears, read: peptide substrate, 3H-SAM Flashplate assay, read-out: PRMT6 IC50.

Each structure is given as a SMILES string. Read-outs that look alike come from different tables or passages of the source.

Sequence of human PRMT8 (Q9NR22 whole entry): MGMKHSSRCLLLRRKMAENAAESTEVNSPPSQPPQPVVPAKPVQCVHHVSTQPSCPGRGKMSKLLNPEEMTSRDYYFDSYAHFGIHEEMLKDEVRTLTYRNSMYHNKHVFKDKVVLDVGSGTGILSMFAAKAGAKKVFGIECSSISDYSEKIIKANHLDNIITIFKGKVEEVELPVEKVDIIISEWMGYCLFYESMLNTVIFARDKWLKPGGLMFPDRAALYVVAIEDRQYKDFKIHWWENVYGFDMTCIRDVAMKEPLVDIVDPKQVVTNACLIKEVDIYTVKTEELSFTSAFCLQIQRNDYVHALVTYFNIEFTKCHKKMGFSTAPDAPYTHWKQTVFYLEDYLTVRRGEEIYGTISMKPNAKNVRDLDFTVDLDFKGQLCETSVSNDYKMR
T2 sequence (Q96LA8 with tags, fused parts or gaps): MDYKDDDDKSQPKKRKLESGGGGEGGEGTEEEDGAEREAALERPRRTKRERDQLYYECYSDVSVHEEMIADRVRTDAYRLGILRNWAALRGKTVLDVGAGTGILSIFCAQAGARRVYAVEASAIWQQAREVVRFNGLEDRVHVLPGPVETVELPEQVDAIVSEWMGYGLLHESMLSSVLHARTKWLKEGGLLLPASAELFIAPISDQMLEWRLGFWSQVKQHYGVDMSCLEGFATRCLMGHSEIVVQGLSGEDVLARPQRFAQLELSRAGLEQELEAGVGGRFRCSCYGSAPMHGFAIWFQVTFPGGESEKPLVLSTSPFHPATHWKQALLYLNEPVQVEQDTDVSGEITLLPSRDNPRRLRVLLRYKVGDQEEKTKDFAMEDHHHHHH
T1 sequence (Q99873 with tags, fused parts or gaps): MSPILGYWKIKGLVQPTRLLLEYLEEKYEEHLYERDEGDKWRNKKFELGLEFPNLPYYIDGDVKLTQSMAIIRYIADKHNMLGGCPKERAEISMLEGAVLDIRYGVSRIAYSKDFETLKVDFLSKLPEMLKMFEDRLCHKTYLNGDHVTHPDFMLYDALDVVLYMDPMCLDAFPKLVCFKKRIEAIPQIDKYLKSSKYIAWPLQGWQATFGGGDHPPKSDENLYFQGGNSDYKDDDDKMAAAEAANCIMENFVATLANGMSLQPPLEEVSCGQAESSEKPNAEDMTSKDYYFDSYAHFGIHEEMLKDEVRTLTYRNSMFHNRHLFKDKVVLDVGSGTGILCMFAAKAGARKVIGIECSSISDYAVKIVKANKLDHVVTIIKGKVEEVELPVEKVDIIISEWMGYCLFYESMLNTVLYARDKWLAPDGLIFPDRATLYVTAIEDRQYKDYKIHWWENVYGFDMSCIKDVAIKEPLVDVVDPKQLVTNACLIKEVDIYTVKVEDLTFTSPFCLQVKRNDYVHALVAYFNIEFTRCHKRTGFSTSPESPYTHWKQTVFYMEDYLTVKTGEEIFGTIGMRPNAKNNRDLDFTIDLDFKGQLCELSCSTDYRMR
Description for human PRMT8: S-adenosylmethionine (SAM), S-adenosylhomocysteine (SAH), bicine, Tween20, dimethylsulfoxide (DMSO), bovine skin gelatin (BSG), isopropyl-3-D-thiogalactopyranoside (IPTG), and Tris(2-carboxyethyl)phosphine hydrochloride solution (TCEP) were purchased from Sigma-Aldrich at the highest level of purity possible. ^3H-SAM was purchase from American Radiolabeled Chemicals with a specific activity of 80 Ci/mmol. 384-well streptavidin Flashplates were purchased from PerkinElmer.
E. coli (BL21(DE3) Gold, Stratagene) made competent by the CaCl2 method were transformed with the PRMT8 construct and ampicillin selection. Protein over-expression was accomplished by growing the PRMT8 expressing E. coli clone and inducing expression with 0.3 mM IPTG at 16° C. The culture was grown for 12 hours, harvested by centrifugation, and stored at −80° C. for purification.
GST-tagged PRMT8 was eluted with 50 mM Tris, 2 mM glutathione, pH 7.8. Pooled fractions were cleaved by thrombin (10U) and dialysed in buffer A. GST was removed by reloading the cleaved protein sample onto glutathione sepharose column and PRMT8 was collected in the flow-through fractions. PRMT8 was purified further by ceramic hydroxyapatite chromatography. The column was washed with 50 mM phosphate buffer, 100 mM NaCl, 5% glycerol, 5 mM β-mercaptoethanol, pH 7.8 and PRMT8 was eluted by 100 mM phosphate in the same buffer. Protein was concentrated and buffer was exchanged to 50 mM Tris, 300 mM NaCl, 10% glycerol, 5 mM β-mercaptoethanol, pH 7.8 by ultrafiltration.
General Procedure for PRMT8 Enzyme Assays on Peptide Substrates.
The assays were all performed in a buffer consisting of 20 mM Bicine (pH=7.6), 1 mM TCEP, 0.005% BSG, and 0.002% Tween 20, prepared on the day of use. […] DMSO (1 ul) was added to Columns 11, 12, 23, 24, rows A-H for the maximum signal control and 1 ul of SAH, a known product and inhibitor of PRMT8, was added to columns 11, 12, 23, 24, rows I-P for the minimum signal control. A cocktail (40 ul) containing the PRMT8 enzyme was added by Multidrop Combi (Thermo-Fisher). The compounds were allowed to incubate with PRMT8 for 30 min at room temperature, then a cocktail (10 ul) containing ^3H-SAM and peptide was added to initiate the reaction (final volume=51 ul). […] The assays were stopped by the addition of non-radiolabeled SAM (10 ul) to a final concentration of 400 uM, which dilutes the ^3H-SAM to a level where its incorporation into the peptide substrate is no longer detectable. 50 ul of the reaction in the 384-well polypropylene plate was then transferred to a 384-well Flashplate and the biotinylated peptides were allowed to bind to the streptavidin surface for at least 1 hour before being washed once with 0.1% Tween20 in a Biotek ELx405 plate washer. The plates were then read in a PerkinElmer TopCount plate reader to measure the quantity of ^3H-labeled peptide bound to the Flashplate surface, measured as disintegrations per minute (dpm) or alternatively, referred to as counts per minute (cpm).
Where dpm=disintegrations per minute, cmpd=signal in assay well, and min and max are the respective minimum and maximum signal controls.
Where top and bottom are the normally allowed to float, but may be fixed at 100 or 0 respectively in a 3-parameter fit. The Hill Coefficient normally allowed to float but may also be fixed at 1 in a 3-parameter fit. Y is the % inhibition and X is the compound concentration.

In the case of `CNCCN(C)Cc1c[nH]nc1-c1ccc(OCCOC)nc1` [Compound 121], the values for the IC50 on human PRMT1, on human PRMT6 (PRMT6 IC50 (uM)) and at human PRMT8 were 0.0423 µM, 0.0886 µM and 0.163 µM, respectively. Moreover, in test [1], the “ICW EC30” value came to 1.472 µM.
For `CCOCC(C)(C)c1cc(OCCOC)cc(-c2n[nH]cc2CN(C)CCNC)c1` [Compound 122], the half-maximal inhibitory concentration (IC50) on human PRMT1 was 0.043 µM; on human PRMT6 (setting [2]), greater than 10 µM; against human PRMT8, 0.371 µM. Besides, the “ICW EC30” value in test [1] is 6.626 µM.
The corresponding values for `CNCCN(C)Cc1c[nH]nc1-c1cc(OC2CCOCC2)cc(C(F)(F)F)c1` [Compound 123] are 0.0439 µM, 1.47 µM, 0.376 µM and 18.364 µM.
On the same counts, the results for `CN(CCN)Cc1c[nH]nc1-c1ccc(N2CCOCC2)cc1` [Compound 124] are 0.0443 µM, 0.107 µM, 0.413 µM and 3.978 µM.
The corresponding values for `CNCCN(C)Cc1c[nH]nc1-c1ccc(OCCC(O)CO)cc1` (centres unmarked) [Compound 125] are 0.0455 µM, 0.0548 µM, 0.269 µM and 10.45 µM.
On to `CNCCN(C)Cc1cnn(C)c1-c1cccc(OC2CC2)c1` [Compound 126], for which the IC50 at human PRMT1 was 0.0455 µM; at human PRMT6 (setting [2]), 0.0737 µM; on human PRMT8 it was 0.0446 µM. Further, in test [1], the “ICW EC30” value stood at 1.272 µM.
Regarding `CCN(c1ccc(-c2n[nH]cc2CN(C)CCNC)cn1)C1CCOCC1` [Compound 127], the IC50 on human PRMT1 was found to be 0.0459 µM; on human PRMT6 (setting [2]) it was 3.45 µM; against human PRMT8, 0.467 µM. Also, the “ICW EC30” value in test [1] is 9.19 µM.
`CNCCN(C)Cc1c[nH]nc1-c1ccc(OCCCS(C)(=O)=O)cc1` [Compound 128]: the IC50 is 0.0464 µM on human PRMT1, 0.0343 µM on human PRMT6 (setting [2]) and 0.131 µM against human PRMT8. Moreover, in test [1], the “ICW EC30” value stood at 13.334 µM.
On the same counts, the results for `CNCCN(C)Cc1cnn(C)c1-c1cccc(CC(C)C)c1` [Compound 129] are 0.0475 µM, 0.219 µM, 0.0877 µM and 7.415 µM.
The corresponding values for `CNCCN(C)Cc1c[nH]nc1-c1cc(OCCCO)cc(C(F)(F)F)c1` [Compound 130] are 0.0489 µM, 0.619 µM, 0.3 µM and 11.844 µM.
For `CCOCC(C)c1cc(OCCOC)cc(-c2n[nH]cc2CN(C)CCNC)c1` (centres unmarked) [Compound 132], the figures for the IC50 at human PRMT1, at human PRMT6 (setting [2]) and on human PRMT8 were 0.0494 µM, greater than 10 µM and 0.15 µM, respectively. In addition, the “ICW EC30” value in test [1] amounted to 3.608 µM.
On the same counts, the results for `CNCCN(C)Cc1n[nH]cc1-c1cc(C(=O)C(C)C)cc(C(F)(F)F)c1` [Compound 134] are 0.121 µM, 2.07 µM, 0.168 µM and greater than 6.7 µM.
On the same counts, the results for `CNCCN(C)Cc1c[nH]nc1-c1ccc(OCCOc2ccc(OC)cc2)cc1` [Compound 135] are 0.00585 µM, 0.00405 µM, 0.0336 µM and 0.086 µM.
On the same counts, the results for `CNCCN(C)Cc1c[nH]nc1-c1ccc(N(C)CCCOc2ccc(OC)cc2)cc1` [Compound 136] are 0.00521 µM, 0.00825 µM, 0.0124 µM and 0.1762 µM.
Regarding `CNCCN(C)Cc1c[nH]nc1-c1ccc(OCCOc2ccc(C(F)(F)F)cc2)cc1` [Compound 138], the IC50 on human PRMT1 came out at 0.00608 µM; at human PRMT6 (setting [2]), 0.00977 µM; against human PRMT8, 0.0366 µM. The “ICW EC30” value in test [1] worked out at 0.3278 µM.
Consider `CNCCN(C)Cc1c[nH]nc1-c1ccc(OCCOc2ccc(OC(F)(F)F)cc2)cc1` [Compound 140], for which the IC50 on human PRMT1 worked out at 0.00683 µM; on human PRMT6 (setting [2]), 0.00703 µM; against human PRMT8, 0.0526 µM. The “ICW EC30” value in test [1] is 0.47 µM.
On the same counts, the results for `CNCCN(C)Cc1cnn(C2CCC2)c1-c1ccc(OC(C)C)cc1` [Compound 141] are 0.0658 µM, 0.0869 µM, 0.056 µM and 0.496 µM.
Consider `CNCCN(C)Cc1c[nH]nc1-c1ccc(OCCOc2cccc(CO)c2)cc1` [Compound 143], for which the half-maximal inhibitory concentration (IC50) came out at 0.00669 µM at human PRMT1, 0.00448 µM at human PRMT6 (setting [2]) and 0.0258 µM against human PRMT8. For the same compound, in test [1], the “ICW EC30” value was 0.5443 µM.
With `CNCCN(C)Cc1c[nH]nc1-c1ccc(OCCOc2ccc(C(C)C)cc2)cc1` [Compound 144], the IC50 at human PRMT1 stood at 0.00643 µM; on human PRMT6 (setting [2]), 0.00574 µM; against human PRMT8, 0.03 µM. Moreover, the “ICW EC30” value in test [1] came to 0.6546 µM.
On the same counts, the results for `CNCCN(C)Cc1c[nH]nc1-c1ccc(OC(COc2ccccc2)COc2ccccc2)cc1` [Compound 146] are 0.00732 µM, 0.00624 µM, 0.0375 µM and 1.403 µM.
On the same counts, the results for `CNCCN(C)Cc1c[nH]nc1-c1ccc(OC2CC(OCCN3CCOCC3)C2)cc1` (centres unmarked) [Compound 147] are 0.111 µM, 0.0164 µM, 0.162 µM and 4.237 µM.
The corresponding values for `CNCCN(C)Cc1c[nH]nc1-c1ccc(OCCOc2cccc(C(O)CO)c2)cc1` (centres unmarked) [Compound 148] are 0.00822 µM, 0.00632 µM, 0.0398 µM and 8.688 µM.
Take `CNCCN(C)Cc1c[nH]nc1-c1ccc(OC2CC(OCCC(O)CO)C2)cc1` (centres unmarked) [Compound 149]: the IC50 at human PRMT1 stood at 0.172 µM; on human PRMT6 (setting [2]) it was 0.0286 µM; against human PRMT8, 0.342 µM. Further, the “ICW EC30” value in test [1] is greater than 20 µM.
Consider `CN(CCN)Cc1c[nH]nc1-c1ccc2c(c1)OCC(=O)N2` [Compound 152], for which the IC50 was determined as 0.0654 µM at human PRMT1, 0.00828 µM on human PRMT6 (setting [2]) and 0.459 µM against human PRMT8. Also, in test [1], the “ICW EC30” value was greater than 20 µM.
In the case of `CNCCN(C)Cc1c[nH]nc1-c1ccc(OCCOc2cccc(C)c2)cc1` [Compound 153], the half-inhibitory concentration (IC50) amounted to 0.0043 µM on human PRMT1, 0.00315 µM on human PRMT6 (setting [2]) and 0.0133 µM at human PRMT8. For the same compound, in test [1], the “ICW EC30” value came to 0.1776 µM.
On to `CNCCN(C)Cc1ccnn1-c1cc(OCCOC)cc(C(F)(F)F)c1` [Compound 154], for which the half-inhibitory concentration (IC50) on human PRMT1 is 2.03 µM; on human PRMT6 (setting [2]), greater than 10 µM; at human PRMT8, 8.45 µM. Besides, in test [1], the “ICW EC30” value was greater than 20 µM.

What is called IC50 is the midpoint of a concentration-inhibition curve.
